From PubChem BioAssay AID1963966 (Molecular Pharmacology Branch, DTP, NCI, 2024)

System: 935938-334-R-J1-PDC spheroids with HUVEC/MSC, viability
Experiment: Anticancer human tumor 935938-334-R-J1-PDC patient-derived small intestine adenocarcinoma cell line growth inhibition [PI3K]
Settings: for IC50: curve of first compound; for viability, T/C: stronger effect = lower value
In short: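 We assembled tumor spheroids that included a stromal compartment of HUVEC and MSCs, then exposed them to targeted agents alone and together with PI3K pathway inhibitors. Concentration series descended by half-log from clinically achievable Cmax levels. Viability served as the endpoint.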

[1] = second compound 0.0316 µM, first compound 0.0316 µM
[2] = second compound 0.0316 µM, first compound 0.1 µM
[3] = second compound 0.0316 µM, first compound 0.316 µM
[4] = second compound 0.0316 µM, first compound 1 µM
[5] = second compound 0.0316 µM, first compound 3.16 µM
[6] = second compound 0.0316 µM, first compound 10 µM
[7] = second compound 0.1 µM, first compound 0.0316 µM
[8] = second compound 0.1 µM, first compound 0.1 µM
[9] = second compound 0.1 µM, first compound 0.316 µM
[10] = second compound 0.1 µM, first compound 1 µM
[11] = second compound 0.1 µM, first compound 3.16 µM
[12] = second compound 0.1 µM, first compound 10 µM
[13] = second compound 0.316 µM, first compound 0.0316 µM
[14] = second compound 0.316 µM, first compound 0.1 µM
[15] = second compound 0.316 µM, first compound 0.316 µM
[16] = second compound 0.316 µM, first compound 1 µM
[17] = second compound 0.316 µM, first compound 3.16 µM
[18] = second compound 0.316 µM, first compound 10 µM
[19] = second compound 1 µM, first compound 0.0316 µM
[20] = second compound 1 µM, first compound 0.1 µM
[21] = second compound 1 µM, first compound 0.316 µM
[22] = second compound 1 µM, first compound 1 µM
[23] = second compound 1 µM, first compound 3.16 µM
[24] = second compound 1 µM, first compound 10 µM
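Further: compound exposure lasted seven days before viability was read.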
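Wherever viability, T/C is given: percent of vehicle DMSO treated spheroid viability so 100% = untreated.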

In the case of `Cn1nccc1Nc1nccc(-c2ccn(C(CO)c3ccc(Cl)c(F)c3)c(=O)c2)n1` (centres undefined) + CC(Nc1ncnc2nc[nH]c12)c1cc2cccc(Cl)c2c(=O)n1-c1ccccc1, the IC50 (second compound 0.0316 µM) is reported as 767 nM, the IC50 (second compound 0.1 µM) is reported as 1460 nM and the IC50 (second compound 0.316 µM) is reported as 1300 nM. The IC50 (second compound 1 µM) was 1280 nM, the IC50 (second compound 3.16 µM) was 529 nM and the IC50 (second compound 10 µM) was 143 nM. The viability, T/C [1] was 85.2%, the viability, T/C [2] was 79.2% and the viability, T/C [3] was 66.3%. The viability, T/C [4] was 46.7%, the viability, T/C [5] was 31.1% and the viability, T/C [6] was 38.6%. The viability, T/C [7] was 99.6%, the viability, T/C [8] was 91.1% and the viability, T/C [9] was 73%. It also gave a viability, T/C [10] of 54.4%, a viability, T/C [11] of 41.4% and a viability, T/C [12] of 33.6%. The viability, T/C [13] was 87.9%, the viability, T/C [14] was 101% and the viability, T/C [15] was 63.2%. It also gave a viability, T/C [16] of 56.2%, a viability, T/C [17] of 41.1% and a viability, T/C [18] of 28.3%. For the same molecule, the viability, T/C [19] was 96.2%, the viability, T/C [20] was 81.3% and the viability, T/C [21] was 57.1%. The viability, T/C [22] was 61%, the viability, T/C [23] was 39.6% and the viability, T/C [24] was 27.9%. For the same molecule, the viability, T/C (second compound 3.16 µM, first compound 0.0316 µM) was 74.1%, the viability, T/C (second compound 3.16 µM, first compound 0.1 µM) was 77.8% and the viability, T/C (second compound 3.16 µM, first compound 0.316 µM) was 55.3%. The viability, T/C (second compound 3.16 µM, first compound 1 µM) was 43.1%, the viability, T/C (second compound 3.16 µM, first compound 3.16 µM) was 32.4% and the viability, T/C (second compound 3.16 µM, first compound 10 µM) was 33.6%. The viability, T/C (second compound 10 µM, first compound 0.0316 µM) was 63.4%, the viability, T/C (second compound 10 µM, first compound 0.1 µM) was 53.5% and the viability, T/C (second compound 10 µM, first compound 0.316 µM) was 43.8%. The viability, T/C (second compound 10 µM, first compound 1 µM) was 33.6%, the viability, T/C (second compound 10 µM, first compound 3.16 µM) was 32.6% and the viability, T/C (second compound 10 µM, first compound 10 µM) was 25.3%.

`C=CC(=O)N1CCN(c2nc(=O)n(-c3c(C)ccnc3C(C)C)c3nc(-c4c(O)cccc4F)c(F)cc23)C(C)C1` (centres undefined) + COc1c(OCCCN2CCOCC2)ccc2c3n(c(=NC(=O)c4cnc(N)nc4)nc12)CCN3 showed an IC50 (second compound 0.00316 µM) of over 10000 nM, an IC50 (second compound 0.01 µM) of over 10000 nM and an IC50 (second compound 0.0316 µM) of over 10000 nM. For the same molecule, the IC50 (second compound 0.1 µM) was 2400 nM, the IC50 (second compound 0.316 µM) was under 31.6 nM and the IC50 (second compound 1 µM) was under 31.6 nM. For the same molecule, the viability, T/C (second compound 0.00316 µM, first compound 0.0316 µM) was 94%, the viability, T/C (second compound 0.00316 µM, first compound 0.1 µM) was 108% and the viability, T/C (second compound 0.00316 µM, first compound 0.316 µM) was 93.9%. For the same molecule, the viability, T/C (second compound 0.00316 µM, first compound 1 µM) was 91%, the viability, T/C (second compound 0.00316 µM, first compound 3.16 µM) was 104% and the viability, T/C (second compound 0.00316 µM, first compound 10 µM) was 109%. The viability, T/C (second compound 0.01 µM, first compound 0.0316 µM) was 100%, the viability, T/C (second compound 0.01 µM, first compound 0.1 µM) was 96% and the viability, T/C (second compound 0.01 µM, first compound 0.316 µM) was 92.5%. For the same molecule, the viability, T/C (second compound 0.01 µM, first compound 1 µM) was 94.9%, the viability, T/C (second compound 0.01 µM, first compound 3.16 µM) was 102% and the viability, T/C (second compound 0.01 µM, first compound 10 µM) was 93.2%. The viability, T/C [1] was 93.1%, the viability, T/C [2] was 83.5% and the viability, T/C [3] was 86.7%. The viability, T/C [4] was 71.7%, the viability, T/C [5] was 82.7% and the viability, T/C [6] was 65.9%. For the same molecule, the viability, T/C [7] was 56.9%, the viability, T/C [8] was 47.5% and the viability, T/C [9] was 61.2%. The viability, T/C [10] was 49.3%, the viability, T/C [11] was 67% and the viability, T/C [12] was 33%. The viability, T/C [13] was 32.7%, the viability, T/C [14] was 31.7% and the viability, T/C [15] was 34.5%. For the same molecule, the viability, T/C [16] was 34.7%, the viability, T/C [17] was 28.1% and the viability, T/C [18] was 32.9%. For the same molecule, the viability, T/C [19] was 29.3%, the viability, T/C [20] was 38.8% and the viability, T/C [21] was 38.5%. It also gave a viability, T/C [22] of 33%, a viability, T/C [23] of 32.5% and a viability, T/C [24] of 44.1%.
